Laboratory results as given in ChEMBL document CHEMBL5291721, “A preclinical secondary pharmacology resource illuminates target-adverse drug reaction associations of marketed drugs” (Nat Commun, 2023).

Experiments:
[1] = molecular target: T1, Alpha-2C adrenergic receptor (Homo sapiens, UniProt P18825); format: functional
T1 sequence (P18825 whole entry): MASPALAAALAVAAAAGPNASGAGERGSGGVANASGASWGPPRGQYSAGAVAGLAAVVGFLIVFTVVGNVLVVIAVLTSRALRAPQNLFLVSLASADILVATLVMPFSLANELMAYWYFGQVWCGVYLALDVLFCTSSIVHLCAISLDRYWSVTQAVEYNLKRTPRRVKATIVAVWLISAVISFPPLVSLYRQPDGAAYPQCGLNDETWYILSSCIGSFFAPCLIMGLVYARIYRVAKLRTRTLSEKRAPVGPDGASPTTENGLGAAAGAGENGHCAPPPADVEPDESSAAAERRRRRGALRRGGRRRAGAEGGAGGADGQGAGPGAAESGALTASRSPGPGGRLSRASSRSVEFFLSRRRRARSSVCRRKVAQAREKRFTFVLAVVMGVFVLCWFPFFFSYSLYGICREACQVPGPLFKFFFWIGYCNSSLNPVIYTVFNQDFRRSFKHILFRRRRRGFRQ

[2] = molecular target: T2, Muscarinic acetylcholine receptor M2 (Homo sapiens, UniProt P08172); format: functional, cell-based
T2 sequence (P08172 whole entry): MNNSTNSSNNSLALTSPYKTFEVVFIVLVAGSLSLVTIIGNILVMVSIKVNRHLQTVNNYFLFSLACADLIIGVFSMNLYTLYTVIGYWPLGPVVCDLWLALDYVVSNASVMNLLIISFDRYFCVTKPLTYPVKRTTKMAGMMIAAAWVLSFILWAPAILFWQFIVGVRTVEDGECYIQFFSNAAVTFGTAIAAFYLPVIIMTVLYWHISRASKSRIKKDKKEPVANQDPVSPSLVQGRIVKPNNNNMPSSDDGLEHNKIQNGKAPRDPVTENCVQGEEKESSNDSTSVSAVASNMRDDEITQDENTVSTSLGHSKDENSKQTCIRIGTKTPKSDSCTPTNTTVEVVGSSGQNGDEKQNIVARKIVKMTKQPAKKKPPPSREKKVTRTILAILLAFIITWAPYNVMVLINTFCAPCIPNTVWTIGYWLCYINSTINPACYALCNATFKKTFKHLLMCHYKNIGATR

Cannabinoid receptor 1 = Cannabinoid receptor 1 (Homo sapiens, UniProt P21554); format: functional, cell-based
[3] = molecular target: T3, Alpha-2A adrenergic receptor (Homo sapiens, UniProt P08913); format: functional, cell-based
T3 sequence (P08913 whole entry): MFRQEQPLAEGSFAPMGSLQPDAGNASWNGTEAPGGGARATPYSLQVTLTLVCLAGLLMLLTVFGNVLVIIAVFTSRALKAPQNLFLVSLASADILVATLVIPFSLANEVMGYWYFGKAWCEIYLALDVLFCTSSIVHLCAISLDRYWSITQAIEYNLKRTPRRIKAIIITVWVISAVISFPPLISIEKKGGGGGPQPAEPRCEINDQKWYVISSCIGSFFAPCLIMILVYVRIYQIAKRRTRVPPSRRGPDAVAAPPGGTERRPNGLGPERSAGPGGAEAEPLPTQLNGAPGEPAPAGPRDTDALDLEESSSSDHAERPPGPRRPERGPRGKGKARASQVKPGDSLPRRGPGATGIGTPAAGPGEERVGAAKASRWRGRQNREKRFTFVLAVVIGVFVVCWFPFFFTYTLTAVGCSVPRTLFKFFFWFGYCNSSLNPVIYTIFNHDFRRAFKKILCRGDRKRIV

[4] = molecular target: Sodium-dependent dopamine transporter (Homo sapiens, UniProt Q01959)
Glucocorticoid receptor = molecular target: T4, Glucocorticoid receptor (Homo sapiens, UniProt P04150)
T4 sequence (P04150 whole entry): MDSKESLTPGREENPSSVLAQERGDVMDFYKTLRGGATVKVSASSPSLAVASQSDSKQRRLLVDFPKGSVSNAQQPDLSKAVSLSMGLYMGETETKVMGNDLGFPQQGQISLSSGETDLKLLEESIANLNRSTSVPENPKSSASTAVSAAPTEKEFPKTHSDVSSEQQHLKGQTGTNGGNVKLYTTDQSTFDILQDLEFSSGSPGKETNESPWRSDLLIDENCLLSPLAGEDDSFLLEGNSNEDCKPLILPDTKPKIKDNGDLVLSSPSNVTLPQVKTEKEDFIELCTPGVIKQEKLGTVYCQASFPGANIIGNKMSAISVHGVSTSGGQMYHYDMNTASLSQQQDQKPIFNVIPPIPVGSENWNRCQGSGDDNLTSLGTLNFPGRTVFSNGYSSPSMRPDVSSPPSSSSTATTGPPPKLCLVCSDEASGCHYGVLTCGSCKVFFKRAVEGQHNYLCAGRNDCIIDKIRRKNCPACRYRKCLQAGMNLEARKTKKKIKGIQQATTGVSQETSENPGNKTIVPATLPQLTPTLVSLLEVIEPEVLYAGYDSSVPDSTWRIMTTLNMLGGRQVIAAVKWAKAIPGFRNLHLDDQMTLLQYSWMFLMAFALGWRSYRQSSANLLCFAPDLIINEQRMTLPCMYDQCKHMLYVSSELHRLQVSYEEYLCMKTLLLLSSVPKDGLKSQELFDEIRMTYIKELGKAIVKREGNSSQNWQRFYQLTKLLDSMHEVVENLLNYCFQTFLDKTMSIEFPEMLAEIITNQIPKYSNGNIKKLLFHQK
Note: assay procedure not described here.

Chain of Cannabinoid receptor 1 (P21554 whole entry): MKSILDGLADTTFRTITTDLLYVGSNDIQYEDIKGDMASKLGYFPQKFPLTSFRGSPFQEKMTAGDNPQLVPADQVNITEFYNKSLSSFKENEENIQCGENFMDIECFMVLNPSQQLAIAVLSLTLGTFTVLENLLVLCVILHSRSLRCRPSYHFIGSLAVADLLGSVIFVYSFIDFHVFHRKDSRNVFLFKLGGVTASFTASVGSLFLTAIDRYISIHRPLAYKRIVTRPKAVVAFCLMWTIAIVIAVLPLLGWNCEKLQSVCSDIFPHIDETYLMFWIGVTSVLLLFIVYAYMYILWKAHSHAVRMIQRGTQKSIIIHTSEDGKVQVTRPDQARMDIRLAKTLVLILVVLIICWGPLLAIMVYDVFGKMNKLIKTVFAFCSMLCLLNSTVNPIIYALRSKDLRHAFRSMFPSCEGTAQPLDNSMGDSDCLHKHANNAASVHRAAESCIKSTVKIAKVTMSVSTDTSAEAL
Chain of Sodium-dependent dopamine transporter (Q01959 whole entry): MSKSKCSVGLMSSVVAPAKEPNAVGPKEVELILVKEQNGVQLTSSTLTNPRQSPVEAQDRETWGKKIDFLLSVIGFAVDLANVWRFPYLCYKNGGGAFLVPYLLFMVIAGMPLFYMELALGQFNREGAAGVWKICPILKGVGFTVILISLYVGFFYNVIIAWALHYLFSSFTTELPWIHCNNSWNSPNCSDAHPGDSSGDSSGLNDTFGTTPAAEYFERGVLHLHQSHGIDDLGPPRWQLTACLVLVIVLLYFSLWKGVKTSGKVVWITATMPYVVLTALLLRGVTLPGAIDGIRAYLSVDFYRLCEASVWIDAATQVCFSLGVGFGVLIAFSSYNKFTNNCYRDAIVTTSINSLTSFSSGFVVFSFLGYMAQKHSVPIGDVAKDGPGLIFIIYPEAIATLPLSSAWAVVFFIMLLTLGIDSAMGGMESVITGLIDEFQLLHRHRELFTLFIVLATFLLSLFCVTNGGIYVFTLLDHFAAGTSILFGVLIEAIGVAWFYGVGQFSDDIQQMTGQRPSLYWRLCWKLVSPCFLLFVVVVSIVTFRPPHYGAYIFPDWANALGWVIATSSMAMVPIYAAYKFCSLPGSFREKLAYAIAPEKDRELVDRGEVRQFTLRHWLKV

Compound | AC50 [1] [µM] | AC50 [2] [µM] | AC50 (Cannabinoid receptor 1) [µM] | AC50 [3] [µM] | AC50 [4] [µM] | AC50 (Glucocorticoid receptor) [µM]
CC(=N)N1CC[C@H](SC2=C(C(=O)O)N3C(=O)[C@H]([C@@H](C)O)[C@H]3C2)C1 | > 300 | > 300 | > 300 | > 300 | 270 | 
CC(/C=C1\SC(=S)N(CC(=O)O)C1=O)=C\c1ccccc1 | 8.2 | > 30 | > 30 | > 30 | 20 | 
CC1(C)S[C@@H]2[C@H](NC(=O)[C@H](N)c3ccc(O)cc3)C(=O)N2[C@H]1C(=O)O [AMOXICILLIN] | > 30 | > 30 |  | > 30 | > 30 | 
O=C1CN2Cc3c(ccc(Cl)c3Cl)N=C2N1 [ANAGRELIDE] | > 10 | > 10 | > 30 | > 10 | > 30 | > 30
CNCC[C@@H](Oc1ccccc1C)c1ccccc1 [ATOMOXETINE] | > 30 |  | > 30 |  |  | > 30
CCc1oc2ccccc2c1C(=O)c1cc(Br)c(O)c(Br)c1 [BENZBROMARONE] | 26 |  | > 30 | > 30 | 26 | 11
C=C(C)[C@@H]1CCC(C)=C[C@H]1c1c(O)cc(CCCCC)cc1O [CANNABIDIOL] | > 30 | > 0.3 |  | > 10 | 28 | 
CO/N=C(\C(=O)N[C@@H]1C(=O)N2C(C(=O)O)=C(COC(N)=O)CS[C@H]12)c1ccco1 [CEFUROXIME] | > 30 | > 30 | > 30 | > 30 | > 30 | > 30
[H]/N=C(\N/C(=N/[H])NCCCCCCNC(=N)NC(=N)Nc1ccc(Cl)cc1)Nc1ccc(Cl)cc1 [CHLORHEXIDINE] | 1.8 |  | > 30 | > 30 | 3 | > 30
Clc1cccc(Cl)c1N=C1NCCN1 [CLONIDINE] |  | > 10 | > 30 |  | > 10 | > 30
COC(=O)[C@H](c1ccccc1Cl)N1CCc2sccc2C1 [CLOPIDOGREL] | > 30 | 27 | > 30 | > 30 | > 30 | > 30
CN1C[C@H](C(=O)N[C@]2(C)O[C@@]3(O)[C@@H]4CCCN4C(=O)[C@H](Cc4ccccc4)N3C2=O)C[C@@H]2c3cccc4[nH]cc(c34)C[C@H]21 [DIHYDROERGOTAMINE] |  | > 10 | > 30 |  | > 30 | > 30
CNCC[C@H](Oc1cccc2ccccc12)c1cccs1 [DULOXETINE] | 1.4 | > 10 | > 30 | > 10 |  | > 30
CC1(C)O[C@@H]2C[C@H]3[C@@H]4C[C@H](F)C5=CC(=O)C=C[C@]5(C)[C@H]4[C@@H](O)C[C@]3(C)[C@]2(C(=O)CO)O1 [FLUNISOLIDE] | > 30 | > 30 | > 30 | > 30 | > 30 | 
CCC(=O)O[C@@H](O[P@](=O)(CCCCc1ccccc1)CC(=O)N1C[C@H](C2CCCCC2)C[C@H]1C(=O)O)C(C)C [FOSINOPRIL] | > 30 | > 30 | > 30 | > 30 |  | 
Nc1nc(O)c2ncn(COC(CO)CO)c2n1 [GANCICLOVIR] | > 30 | > 30 | > 30 | > 30 | > 30 | > 30
C[C@H]1Oc2cc(cnc2N)-c2c(nn(C)c2C#N)CN(C)C(=O)c2ccc(F)cc21 [LORLATINIB] | > 30 | > 30 | > 30 | > 30 | > 30 | 
Cc1cnc(NC(=O)C2=C(O)c3ccccc3S(=O)(=O)N2C)s1 [MELOXICAM] | > 10 | > 10 | > 30 | > 10 | > 10 | > 30
CC[C@@H](CO)NC(=O)[C@@H]1C=C2c3cccc4[nH]cc(c34)C[C@H]2N(C)C1 [METHYLERGONOVINE] | 1.7 | > 30 | > 30 | > 30 | > 30 | > 30
CC(=O)Oc1ccccc1C(=O)Nc1ncc([N+](=O)[O-])s1 [NITAZOXANIDE] |  |  | > 30 | > 30 | 7.3 | > 30
CNCCC=C1c2ccccc2CCc2ccccc21 [NORTRIPTYLINE] |  | 1.9 |  |  | 3.2 | > 30
CN(C)c1cc(CNCC(C)(C)C)c(O)c2c1C[C@H]1C[C@H]3[C@H](N(C)C)C(O)=C(C(N)=O)C(=O)[C@@]3(O)C(O)=C1C2=O [OMADACYCLINE] | > 30 | 24.3 | > 30 | > 30 | > 30 | > 30
COc1ccc(Cc2nccc3cc(OC)c(OC)cc23)cc1OC [PAPAVERINE] | > 30 | > 30 | > 30 | > 30 | > 30 | 
CNC[C@H](O)c1cccc(O)c1 [PHENYLEPHRINE] |  | > 10 | > 30 |  | > 10 | 
CNC(=O)c1cc(Oc2ccc(NC(=O)Nc3ccc(Cl)c(C(F)(F)F)c3)c(F)c2)ccn1 [REGORAFENIB] | > 30 | > 30 |  |  | 6.33 | 
CCOc1cc(CC(=O)N[C@@H](CC(C)C)c2ccccc2N2CCCCC2)ccc1C(=O)O [REPAGLINIDE] | > 30 | > 30 | > 30 | > 30 | > 30 | 
CCCN(CCc1cccs1)[C@H]1CCc2c(O)cccc2C1 [ROTIGOTINE] | 0.4 | > 10 | > 30 | 3.7 | 1.3 | 
CC[C@H]1OC(=O)[C@H](C)[C@@H](O[C@H]2C[C@@](C)(OC)[C@@H](O)[C@H](C)O2)[C@H](C)[C@@H](O[C@@H]2O[C@H](C)C[C@H](N(C)C)[C@H]2O)[C@](C)(O)C[C@@H](C)/C(=N\OCOCCOC)[C@H](C)[C@@H](O)[C@]1(C)O [ROXITHROMYCIN] | > 30 | > 30 | > 30 | > 30 | > 30 | 
CN1CCN(CCCN2c3ccccc3Sc3ccc(S(=O)(=O)N(C)C)cc32)CC1 [THIOPROPERAZINE] | 2.6 | 12 | > 30 | > 30 |  | 
